How the values were obtained:
[1] = literature evaluation; cited from earlier work
[2] = Deacon et al., cited from earlier work
[3] = test system: healthy adult male subjects
Experimental: Additional pulmonary safety and pharmacokinetic parameters were also evaluated. Pulmonary safety as expressed by the incidence of pulmonary and other adverse events and changes in pulmonary function between Visit 1 (Screening) and Visit 3 (Follow-up) was studied. […] Clinical trial endpoints were based on a comparison of the following pharmacological and safety parameters determined in the trial subject population. Primary endpoints included the incidence and severity of reported AEs, including cough and dyspnea, nausea and/or vomiting, as well as changes from screening in vital signs, clinical laboratory tests and physical examinations.

[4] = test system: healthy adult male subjects; assay: Phase 1a trial of GLP-1/FDKP inhalation powder: insulin, glucose and glucagon response; format: in vivo, human; details: 1.5 mg GLP-1; two of the six subjects; value that defines hypoglycemia
Source text: Dropouts were not replaced. These dosages assumed a body mass of 70 kg.

male ZDF rats = assay: Food consumption after oxyntomodulin/FDKP powder; format: in vivo, rat; details: 0.15-0.9 mg oxyntomodulin as 30% powder, rats fasted 24 hr
Experimental: Male ZDF rats (10/group) were assigned to one of four groups.
Rats were allowed to eat after receiving the experimental dose. A predetermined amount of food was given to the rats and the amount of food the rats consumed was measured at various times after the start of the experiment.

Compound	active GLP-1 concentration in blood plasma above which profuse sweating, nausea and vomiting are typically observed [1]	degradation in the liver [2]	GLP-1 instantaneously metabolized in the vein ([2]; intravenous, pigs)	GLP-1 metabolized in the deoxygenated blood in the lung ([2]; intravenous, pigs)	extraction by the portal bed ([2]; intravenous, pigs)	subjects reporting symptoms of nausea, profuse sweating or vomiting ([3]; all doses, pulmonary)	inhibition of gastric emptying ([3]; pulmonary dry powder, data not shown)	time for plasma active GLP-1 to fall to the physiological range (after inhalation of GLP-1/FDKP powder)	metabolite peaks, intravenous compared to pulmonary administration (at comparable active concentrations)	glucose concentration lowered by GLP-1 [4]	duration of significantly less food consumed than control rats (male ZDF rats)
CC[C@H](C)[C@H](NC(=O)[C@H](Cc1ccccc1)NC(=O)[C@H](CCC(=O)O)NC(=O)[C@H](CCCCN)NC(=O)[C@H](C)NC(=O)[C@H](C)NC(=O)[C@H](CCC(N)=O)NC(=O)CNC(=O)[C@H](CCC(=O)O)NC(=O)[C@H](CC(C)C)NC(=O)[C@H](Cc1ccc(O)cc1)NC(=O)[C@H](CO)NC(=O)[C@H](CO)NC(=O)[C@@H](NC(=O)[C@H](CC(=O)O)NC(=O)[C@H](CO)NC(=O)[C@@H](NC(=O)[C@H](Cc1ccccc1)NC(=O)[C@@H](NC(=O)CNC(=O)[C@H](CCC(=O)O)NC(=O)[C@H](C)NC(=O)[C@@H](N)Cc1c[nH]cn1)[C@@H](C)O)[C@@H](C)O)C(C)C)C(=O)N[C@@H](C)C(=O)N[C@@H](Cc1c[nH]c2ccccc12)C(=O)N[C@@H](CC(C)C)C(=O)N[C@H](C(=O)N[C@@H](CCCCN)C(=O)NCC(=O)N[C@@H](CCCNC(=N)N)C(N)=O)C(C)C [GLP-1, GLP-1(7-36)amide]	exceed 100 pmol/L	45%	40%	10%	20%	None of the subjects	lack inhibition of gastric emptying	≤ 9 min	8-9 fold greater	below 3.5 mmol/L	–
oxyntomodulin	–	–	–	–	–	–	–	–	–	–	up to 6 hr

From patent US20150231067A1, “METHOD AND COMPOSITION FOR TREATING HYPERGLYCEMIA” (MannKind Corporation, priority 2012, published 2015)
